Measurements published in US9469615B2, “Quinoxalines and AZA-quinoxalines as CRTH2 receptor modulators” (Merck Sharp & Dohme Corp., priority 2010, dated 2016).

The compounds below were run against T1, hCRTH2 (Homo sapiens, UniProt Q9Y5Y4) (assay: Radioligand binding assay ([3H]PGD2 competition, HEK-hCRTH2 membranes)). Settings: [3H]PGD2 competition, Table B.
T1 construct: expressed in transfected cells; host or cells: HEK (human embryonic kidney) cells expressing hCRTH2; membrane preparation
T1 sequence (Q9Y5Y4 1-395): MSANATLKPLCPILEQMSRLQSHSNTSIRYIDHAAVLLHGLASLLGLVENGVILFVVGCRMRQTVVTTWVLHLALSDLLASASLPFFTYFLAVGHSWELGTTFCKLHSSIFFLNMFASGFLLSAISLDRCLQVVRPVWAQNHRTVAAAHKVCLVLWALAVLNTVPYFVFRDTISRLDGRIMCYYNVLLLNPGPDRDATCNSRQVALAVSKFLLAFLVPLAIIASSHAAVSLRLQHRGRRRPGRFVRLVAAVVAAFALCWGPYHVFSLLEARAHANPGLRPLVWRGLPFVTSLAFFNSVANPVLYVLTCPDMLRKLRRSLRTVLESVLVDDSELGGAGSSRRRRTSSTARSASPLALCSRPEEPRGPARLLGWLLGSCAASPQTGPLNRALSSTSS
Method in brief: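 HEK-hCRTH2 membranes, 8-20 μg; [3H]PGD2 3.0 nM; 50 mM Tris-HCl pH 7.4/1 mM EDTA/2 mM MnCl2; DMSO 1%; 60 min RT; NSB 10 μM PGD2; filtration, scintillation counting.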

Row | Compound | Ki
1 | O=C(N[C@@H]1CCc2cc(F)ccc21)c1ccc2nc(-c3ccccc3)c(CCCC(F)(F)C(=O)O)nc2c1 [compound 468, (R)-2,2-difluoro-5-(7-((5-fluoro-2,3-dihydro-1H-inden-1-yl)carbamoyl)-3-phenylquinoxalin-2-yl)pentanoic acid] | 2.1 to 20 nM
2 | O=C(N[C@H](c1ccc(F)cc1)C(F)(F)F)c1ccc2nc(-c3ccccc3)c(CCCC(F)(F)C(=O)O)nc2c1 [compound 469, (R)-2,2-difluoro-5-(3-phenyl-7-((2,2,2-trifluoro-1-(4-fluorophenyl)ethyl)carbamoyl)quinoxalin-2-yl)pentanoic acid] | 201 to 700 nM
3 | O=C(c1ccc2nc(-c3ccccc3)c(CCCC(F)(F)C(=O)O)nc2c1)N1CCN(c2ccccc2)CC1 [compound 470, 2,2-difluoro-5-(3-phenyl-7-(4-phenylpiperazine-1-carbonyl)quinoxalin-2-yl)pentanoic acid] | 20.1 to 200 nM
4 | C[C@@H](NC(=O)c1ccc2nc(-c3ccc(F)cc3)c(CCCCC(=O)O)nc2c1)c1ccc(F)cn1 [compound 471, (R)-5-(3-(4-fluorophenyl)-7-((1-(5-fluoropyridin-2-yl)ethyl)carbamoyl)quinoxalin-2-yl)pentanoic acid] | 2.1 to 20 nM
5 | C[C@H](NC(=O)c1ccc2nc(-c3ccc(F)cc3)c(CCCCC(=O)O)nc2c1)c1ccc(F)cn1 [compound 472, (S)-5-(3-(4-fluorophenyl)-7-((1-(5-fluoropyridin-2-yl)ethyl)carbamoyl)quinoxalin-2-yl)pentanoic acid] | 20.1 to 200 nM
6 | C[C@@H](NC(=O)c1ccc2nc(-c3ccccc3)c(CCCCC(=O)O)nc2c1)c1ccc(F)cn1 [compound 473, (R)-5-(7-((1-(5-fluoropyridin-2-yl)ethyl)carbamoyl)-3-phenylquinoxalin-2-yl)pentanoic acid] | 2.1 to 20 nM
7 | C[C@H](NC(=O)c1ccc2nc(-c3ccccc3)c(CCCCC(=O)O)nc2c1)c1ccc(F)cn1 [compound 474, (S)-5-(7-((1-(5-fluoropyridin-2-yl)ethyl)carbamoyl)-3-phenylquinoxalin-2-yl)pentanoic acid] | 2.1 to 20 nM
8 | O=C(N[C@@H]1CCCc2cc(Cl)ccc21)c1ccc2nc(-c3ccc(F)cc3)c(CCCC(F)(F)C(=O)O)nc2c1 [compound 475, (R)-5-(7-((6-chloro-1,2,3,4-tetrahydronaphthalen-1-yl)carbamoyl)-3-(4-fluorophenyl)quinoxalin-2-yl)-2,2-difluoropentanoic acid] | 2.1 to 20 nM
9 | O=C(N[C@@H]1CCc2cc(F)ccc21)c1ccc2nc(-c3ccc(F)cc3)c(CCCC(F)(F)C(=O)O)nc2c1 [compound 476, (R)-2,2-dilluoro-5-(7-((5-fluoro-2,3-dihydro-1H-inden-1-yl)carbamoyl)-3-(4-fluorophenyl)quinoxalin-2-yl)pentanoic acid] | 20.1 to 200 nM
10 | C[C@H](CCCc1nc2cc(C(=O)N[C@@H]3CCCc4ccccc43)ccc2nc1-c1ccc(F)cc1)C(=O)O [compound 477, (R)-5-(3-(4-fluorophenyl)-7-(((R)-1,2,3,4-tetrahydronaphthalen-1-yl)carbamoyl)quinoxalin-2-yl)-2-methylpentanoic acid] | 2.1 to 20 nM
11 | C[C@H](CCCc1nc2cc(C(=O)N[C@H]3CCCc4ccccc43)ccc2nc1-c1ccc(F)cc1)C(=O)O [compound 478, (R)-5-(3-(4-fluorophenyl)-7-(((S)-1,2,3,4-tetrahydronaphthalen-1-yl)carbamoyl)quinoxalin-2-yl)-2-methylpentanoic acid] | 20.1 to 200 nM
12 | C[C@H](CCCc1nc2cc(C(=O)N[C@H](C)c3ccc(F)cc3)ccc2nc1-c1ccc(F)cc1)C(=O)O [compound 479] | 20.1 to 200 nM
13 | O=C(N[C@@H]1CCCc2cc(F)ccc21)c1ccc2nc(-c3ccccc3)c(CCCC(F)(F)C(=O)O)nc2c1 [compound 480, (R)-2,2-difluoro-5-(7-((6-fluoro-1,2,3,4-tetrahydronaphthalen-1-yl)carbamoyl)-3-phenylquinoxalin-2-yl)pentanoic acid] | 2.1 to 20 nM
14 | C[C@H](CCCc1nc2cc(C(=O)N[C@@H](C)c3ccc(F)cc3)ccc2nc1-c1ccc(F)cc1)C(=O)O [compound 481, (R)-5-(3-(4-fluorophenyl)-7-(((S)-1-(4-fluorophenyl)ethyl)carbamoyl)quinoxalin-2-yl)-2-methylpentanoic acid] | 20.1 to 200 nM
15 | C[C@@H](CCCc1nc2cc(C(=O)N[C@@H]3CCCc4ccccc43)ccc2nc1-c1ccc(F)cc1)C(=O)O [compound 482, (S)-5-(3-(4-fluorophenyl)-7-(((R)-1,2,3,4-tetrahydronaphthalen-1-yl)carbamoyl)quinoxalin-2-yl)-2-methylpentanoic acid] | 2.1 to 20 nM
16 | C[C@@H](CCCc1nc2cc(C(=O)N[C@H]3CCCc4ccccc43)ccc2nc1-c1ccc(F)cc1)C(=O)O [compound 483, (S)-5-(3-(4-fluorophenyl)-7-(((S)-1,2,3,4-tetrahydronaphthalen-1-yl)carbamoyl)quinoxalin-2-yl)-2-methylpentanoic acid] | 2.1 to 20 nM
17 | C[C@@H](CCCc1nc2cc(C(=O)N[C@H](C)c3ccc(F)cc3)ccc2nc1-c1ccc(F)cc1)C(=O)O [compound 484, (S)-5-(3-(4-fluorophenyl)-7-(((R)-1-(4-fluorophenyl)ethyl)carbamoyl)quinoxalin-2-yl)-2-methylpentanoic acid] | 2.1 to 20 nM
18 | C[C@H](NC(=O)c1ccc2nc(-c3ccc(F)cc3)c(CCC[C@H](C)C(=O)O)nc2c1)c1ccc(F)cc1 [compound 485, (S)-5-(3-(4-fluorophenyl)-7-(((S)-1-(4-fluorophenyl)ethyl)carbamoyl)quinoxalin-2-yl)-2-methylpentanoic acid] | 2.1 to 20 nM
19 | O=C(N[C@@H]1CCCc2ccccc21)c1ccc2nc(-c3ccc(F)cc3)c(CCCC(F)(F)C(=O)O)nc2c1 [compound 486, (R)-2,2-difluoro-5-(3-(4-fluorophenyl)-7-((1,2,3,4-tetrahydronaphthalen-1-yl)carbamoyl)quinoxalin-2-yl)pentanoic acid] | 2.1 to 20 nM
20 | C[C@@H](NC(=O)c1ccc2nc(-c3ccc(F)cc3)c(CCCC(F)(F)C(=O)O)nc2c1)c1ccc(F)cc1 [compound 487, (R)-2,2-difluoro-5-(3-(4-fluorophenyl)-7-((1-(4-fluorophenyl)ethyl)carbamoyl)quinoxalin-2-yl) pentanoic acid] | 20.1 to 200 nM
21 | C[C@@H]1CN(c2ccc(F)cc2)CCN1C(=O)c1ccc2nc(-c3ccc(Cl)cc3)c(CCCCC(=O)O)nc2c1 [compound 488, (R)-5-(3-(4-chlorophenyl)-7-(4-(4-fluorophenyl)-2-methylpiperazine-1-carbonyl)quinoxalin-2-yl)pentanoic acid] | 2.1 to 20 nM
22 | C[C@@H]1CN(c2ccc(F)cc2)CCN1C(=O)c1ccc2nc(-c3ccc(F)cc3)c(CCCCC(=O)O)nc2c1 [compound 489, (R)-5-(3-(4-fluorophenyl)-7-(4-(4-fluorophenyl)-2-methylpiperazine-1-carbonyl)quinoxalin-2-yl)pentanoic acid] | 2.1 to 20 nM
23 | C[C@H]1CN(c2ccc(F)cc2)CCN1C(=O)c1ccc2nc(-c3ccc(Cl)cc3)c(CCCCC(=O)O)nc2c1 [compound 490, (S)-5-(3-(4-chlorophenyl)-7-(4-(4-fluorophenyl)-2-methylpiperazine-1-carbonyl)quinoxalin-2-yl)pentanoic acid] | 2.1 to 20 nM
24 | O=C(O)CCCCc1nc2cc(C(=O)N[C@@H]3CCOc4ccccc43)ccc2nc1-c1ccc(F)cc1 [compound 491, (R)-5-(7-(chroman-4-ylcarbamoyl)-3-(4-fluorophenyl)quinoxalin-2-yl)pentanoic acid] | 0.1 to 2 nM
25 | O=C(O)CCCCc1nc2cc(C(=O)N[C@H]3CCOc4ccccc43)ccc2nc1-c1ccc(F)cc1 [compound 492, (S)-5-(7-(chroman-4-ylcarbamoyl)-3-(4-fluorophenyl)quinoxalin-2-yl)pentanoic acid] | 2.1 to 20 nM
26 | C[C@@H](NC(=O)c1ccc2nc(-c3ccc(Cl)cc3)c(CCCCC(=O)O)nc2c1)c1cccc2ccccc12 [compound 493, (R)-5-(3-(4-chlorophenyl)-7-((1-(naphthalen-1-yl)ethyl)carbamoyl)quinoxalin-2-yl)pentanoic acid] | 2.1 to 20 nM
27 | C[C@H](NC(=O)c1ccc2nc(-c3ccc(Cl)cc3)c(CCCCC(=O)O)nc2c1)c1cccc2ccccc12 [compound 494, (S)-5-(3-(4-chlorophenyl)-7-((1-(naphthalen-1-yl)ethyl)carbamoyl)quinoxalin-2-yl)pentanoic acid] | 2.1 to 20 nM
28 | C[C@@H](NC(=O)c1ccc2nc(-c3ccc(Cl)cc3)c(CCCCC(=O)O)nc2c1)c1ccc2ccccc2c1 [compound 495, (R)-5-(3-(4-chlorophenyl)-7-((1-(naphthalen-2-yl)ethyl)carbamoyl)quinoxalin-2-yl)pentanoic acid] | 2.1 to 20 nM
29 | C[C@H](NC(=O)c1ccc2nc(-c3ccc(Cl)cc3)c(CCCCC(=O)O)nc2c1)c1ccc2ccccc2c1 [compound 496, (S)-5-(3-(4-chlorophenyl)-7-((1-(naphthalen-2-yl)ethyl)carbamoyl)quinoxalin-2-yl)pentanoic acid] | 2.1 to 20 nM
30 | C[C@H]1CN(c2ccc(F)cc2)CCN1C(=O)c1ccc2nc(-c3ccc(F)cc3)c(CCCCC(=O)O)nc2c1 [compound 497, (S)-5-(3-(4-fluoro-phenyl)-7-(4-(4-fluorophenyl)-2-methylpiperazine-1-carbonyl)quinoxalin-2-yl)pentanoic acid] | 2.1 to 20 nM
